Assay: RP, Waters ACQUITY UPLC BEH C18, 100 × 2.1 mm, 1.7 µm, 0.3 mL/min, estimated dead time 0.73 min; A: water + 0.1% formic acid, pH 3; B: methanol + 0.1% formic acid, pH 3; gradient (min/%B) 0/10 14/90 16/90 18/10
Details: stereoisomer not certain

Row | SMILES | LC retention time
1 | CON=C(Cc1cccnc1)c1ccc(Cl)cc1Cl (single isomer, unassigned; isomer 1) [Pyrifenox ISOMER 1] | 10.2 min
2 | CC12C=CC(=O)C=C1CCC1C2CCC2(C)C(=O)CCC12 (stereo not drawn) [1.4-Androstadiene-3.17-dione (Boldione)] | 9.82 min
3 | Nc1ccccc1O [2-Aminophenol] | 1.44 min
4 | CCNc1nc(NCC)[nH]c(=O)n1 [2-hydroxysimazine] | 3.33 min
5 | Nc1ccc(Cl)c(Cl)c1 [3.4-dichloroaniline] | 7.98 min
6 | CC(=O)Nc1c(C)n(C)n(-c2ccccc2)c1=O [4-Acetylamino-Antipyrine] | 3.87 min
7 | Cc1c(N)c(=O)n(-c2ccccc2)n1C [4-amino-antipyrine] | 2.92 min
8 | Cc1c(NC=O)c(=O)n(-c2ccccc2)n1C [4-formylamino-Antipyrine] | 3.78 min
9 | CC1CC2C(C(O)CC3(C)C2CCC3(O)C(=O)CO)C2(C)C=CC(=O)C=C12 (stereo not drawn) [6a-Methylprednisolone] | 9.42 min
10 | CCC(C)C1OC2(C=CC1C)CC1CC(CC=C(C)C(OC3CC(OC)C(OC4CC(OC)C(O)C(C)O4)C(C)O3)C(C)C=CC=C3COC4C(O)C(C)=CC(C(=O)O1)C34O)O2 (stereo not drawn) [Abamectin B1a] | 13.5 min
11 | O=C(O)COC(=O)Cc1ccccc1Nc1c(Cl)cccc1Cl [Aceclofenac] | 10.3 min
12 | COP(=O)(NC(C)=O)SC (stereo not drawn) [Acephate] | 1.45 min
13 | CC(=O)c1ccc2c(c1)N(CCCN(C)C)c1ccccc1S2 [Acepromazine] | 8.97 min
14 | CC(=O)Nc1ccc(O)cc1 [Acetaminophen] | 2.4 min
15 | CC(=NC#N)N(C)Cc1ccc(Cl)nc1 [Acetamiprid] | 4.99 min
16 | CCOCN(C(=O)CCl)c1c(C)cccc1CC [Acetochlor] | 11.1 min
17 | COc1cc2c(c3oc(=O)c4c(c13)CCC4=O)C1C=COC1O2 (stereo not drawn) [Aflatoxin B1] | 7.97 min
18 | COc1cc2c(c3c1C1CCC(=O)C1C(=O)O3)C1CCOC1O2 (stereo not drawn) [Aflatoxin B2] | 7.55 min
19 | COc1cc2c(c3oc(=O)c4c(c13)CCOC4=O)C1C=COC1O2 (stereo not drawn) [Aflatoxin G1] | 7.15 min
20 | COc1cc2c(c3oc(=O)c4c(c13)CCOC4=O)C1CCOC1O2 (stereo not drawn) [Aflatoxin G2] | 6.71 min
21 | COc1cc2c(c3oc(=O)c4c(c13)CCC4=O)C1(O)C=COC1O2 (stereo not drawn) [Aflatoxin M1] | 7.15 min

Row | SMILES | LC retention time
22 | CCc1cccc(CC)c1N(COC)C(=O)CCl [Alachlor] | 11.7 min
23 | CCOC(=O)CCN(Cc1ccccc1)SN(C)C(=O)ON=C(C)SC [Alanycarb] | 11.6 min
24 | CCCS(=O)(=O)c1ccc2nc(NC(=O)OC)[nH]c2c1 [Albendazole sulfone] | 6.16 min
25 | CNC(=O)ON=CC(C)(C)S(C)(=O)=O [Aldicarb sulfone] | 4.8 min
26 | CNC(=O)ON=CC(C)(C)S(C)=O (stereo not drawn) [Aldicarb sulfoxide] | 2.54 min
27 | CNC(=O)ON=CC(C)(C)SC [Aldicarb] | 6.2 min
28 | C=CCC1=C(C)C(OC(=O)C2C(C=C(C)C)C2(C)C)CC1=O (stereo not drawn) [Allethrin] | 13.1 min
29 | CCNc1nc(NC(C)C)nc(SC)n1 [Ametryn] | 9.9 min
30 | COc1cc(OC)nc(NC(=O)NS(=O)(=O)N(C)S(C)(=O)=O)n1 [Amidosulfuron] | 4.59 min
31 | Cc1ccc(N=CN(C)C=Nc2ccc(C)cc2C)c(C)c1 [Amitraz] | 13.9 min
32 | CC1(C)SC2C(NC(=O)C(N)c3ccc(O)cc3)C(=O)N2C1C(=O)O (stereo not drawn) [Amoxicillin] | 4.61 min
33 | CC(N)Cc1ccccc1 (stereo not drawn) [Amphetamine] | 3.59 min
34 | CC1(C)SC2C(NC(=O)C(N)c3ccccc3)C(=O)N2C1C(=O)O (stereo not drawn) [Ampicillin] | 4.95 min
35 | COc1ccc(C(O)(c2cncnc2)C2CC2)cc1 (stereo not drawn) [Ancymidol] | 7.72 min
36 | CC12CCC(O)CC1=CCC1C2CCC2(C)C(O)CCC12 (stereo not drawn) [Androstenediol (AED)] | 12.9 min
37 | COP(=S)(OC)SCC(=O)N(c1ccc(Cl)cc1)C(C)C [Anilofos] | 11.7 min
38 | CC(C)NCC(O)COc1ccc(CC(N)=O)cc1 (stereo not drawn) [Atenolol] | 8.74 min
39 | CC(C)c1c(C(=O)Nc2ccccc2)c(-c2ccccc2)c(-c2ccc(F)cc2)n1CCC(O)CC(O)CC(=O)O (stereo not drawn) [Atorvastatin] | 12 min
40 | CCNc1nc(Cl)nc(NC(C)C)n1 [Atrazine] | 9.34 min
41 | Clc1ccc(C2(Cn3cncn3)OCCO2)c(Cl)c1 [Azaconazole] | 9.01 min
42 | COP(=O)(OC)SCn1c(=O)oc2cc(Cl)cnc21 [Azamethiphos] | 7.22 min

Row | SMILES | LC retention time
43 | OC(CCCN1CCN(c2ccccn2)CC1)c1ccc(F)cc1 (stereo not drawn) [Azaperol] | 4.96 min
44 | O=C(CCCN1CCN(c2ccccn2)CC1)c1ccc(F)cc1 [Azaperone] | 5.63 min
45 | CCOP(=S)(OCC)SCn1nnc2ccccc2c1=O [Azinphos-ethyl] | 10.8 min
46 | COP(=S)(OC)SCn1nnc2ccccc2c1=O [Azinphos-methyl] | 10.1 min
47 | CCC1OC(=O)C(C)C(OC2CC(C)(OC)C(O)C(C)O2)C(C)C(OC2OC(C)CC(N(C)C)C2O)C(C)(O)CC(C)CN(C)C(C)C(O)C1(C)O (stereo not drawn) [Azithromycin] | 6.2 min
48 | COC=C(C(=O)OC)c1ccccc1Oc1cc(Oc2ccccc2C#N)ncn1 [Azoxystrobin] | 10.6 min
49 | CCC(=O)OCC(=O)C1(OC(=O)CC)C(C)CC2C3CCC4=CC(=O)C=CC4(C)C3(Cl)C(O)CC21C (stereo not drawn) [Beclometasone dipropionate] | 12.3 min
50 | COC(=O)C(C)N(C(=O)Cc1ccccc1)c1c(C)cccc1C (stereo not drawn) [Benalaxyl] | 11.7 min
51 | O=C(O)Cn1c(=O)sc2cccc(Cl)c21 [Benazolin] | 4.59 min
52 | CNC(=O)Oc1cccc2c1OC(C)(C)O2 [Bendiocarb] | 7.43 min
53 | CCCCNC(=O)n1c(NC(=O)OC)nc2ccccc21 [Benomyl] | 11.6 min
54 | CC1COc2ccccc2N1C(=O)C(Cl)Cl (stereo not drawn) [Benoxacor] | 9.47 min
55 | COC(=O)c1ccccc1CS(=O)(=O)NC(=O)Nc1nc(OC)cc(OC)n1 [Bensulfuron methyl] | 9.29 min
56 | CC(C)N1C(=O)c2ccccc2NS1(=O)=O [Bentazon] | 3.68 min
57 | CCON=C(OC(=O)c1ccccc1)c1c(OC)ccc(Cl)c1OC [Benzoximate] | 12.1 min
58 | CCCCOC(=O)c1ccccc1C(=O)OCc1ccccc1 [Benzyl butyl phthalate] | 12.4 min
59 | COc1ccc(-c2ccccc2)cc1NNC(=O)OC(C)C [Bifenazate] | 10.8 min
60 | COC(=O)c1cc(Oc2ccc(Cl)cc2Cl)ccc1[N+](=O)[O-] [Bifenox] | 12.2 min
61 | CC(C)=CC1C(C(=O)OCc2coc(Cc3ccccc3)c2)C1(C)C (stereo not drawn) [Bioresmethrin] | 14.2 min
62 | CCCCC(CC)COC(=O)CCCCC(=O)OCC(CC)CCCC (stereo not drawn) [Bis-(2-ethylhexyl) adipate] | 15.3 min
63 | CCCCC(CC)COC(=O)c1ccccc1C(=O)OCC(CC)CCCC (stereo not drawn) [Bis-(2-ethylhexyl) phthalate] | 15.3 min
